Assay results as given in the supplement of paper PMC11208160.

Experiment: recombinant UMI read abundance after kanamycin selection (control-corrected) (log10(CPM+1)); higher = more efficient recombination; extreme values may be limits of the assay; sequences stand for … in AGTGCAGAGAAAATCGGCCAGTTTTCTCTGCCTGCAGTCCGCATGCCGTGGGACCCCTTGGGTTCTAACCTGTTGCCTAGATTTATGCAGCGGACTGCCTTTCTCCCAAAGTGATAAACCGG…AGGTTGGTTTCACT; site = the 11-nt donor
In short: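 Each donor and donor-binding-loop pair was tracked by a 12-nt UMI on a plasmid carrying a promoterless kanamycin gene. With a second plasmid supplying a fixed target and T7-inducible IS621 bridge recombinase, the pool was plated in Escherichia coli on IPTG (0.07 mM) plus kanamycin or unselected. Sequencing of recombinant UMIs across the donor–target junction gave counts expressed as log10(CPM+1) after replicate averaging and control-derived scaling.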
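Note: IS621 bridge recombinase in Escherichia coli cells against a fixed T5 target plasmid.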

GGATAGACATGGACCGGTTTTCCCGGTAATCCGTATTTGCC (site GGAGAGACTGG)
recombinant UMI read abundance (log10): 0

GGATAGACATGGACCGGTTTTCCCGGTAATCCGTATTTGCC (site GGATAAACTGG)
recombinant UMI read abundance (log10): 2.06

GGATAGACATGGACCGGTTTTCCCGGTAATCCGTATTTGCC (site GGATACACTGG)
recombinant UMI read abundance (log10): 1.54

GGATAGACATGGACCGGTTTTCCCGGTAATCCGTATTTGCC (site GGATAGACTAG)
recombinant UMI read abundance (log10): 0.852

GGATAGACATGGACCGGTTTTCCCGGTAATCCGTATTTGCC (site GGATAGACTCG)
recombinant UMI read abundance (log10): 0.799

GGATAGACATGGACCGGTTTTCCCGGTAATCCGTATTTGCC (site GGATAGACTGA)
recombinant UMI read abundance (log10): 1.38

GGATAGACATGGACCGGTTTTCCCGGTAATCCGTATTTGCC (site GGATAGACTGC)
recombinant UMI read abundance (log10): 0

GGATAGACATGGACCGGTTTTCCCGGTAATCCGTATTTGCC (site GGATAGACTGG)
recombinant UMI read abundance (log10): 2.73

GGATAGACATGGACCGGTTTTCCCGGTAATCCGTATTTGCC (site GGATAGACTGT)
recombinant UMI read abundance (log10): 1.32

GGATAGACATGGACCGGTTTTCCCGGTAATCCGTATTTGCC (site GGATAGACTTG)
recombinant UMI read abundance (log10): 1.75

GGATAGACATGGACCGGTTTTCCCGGTAATCCGTATTTGCC (site GGATAGCCTGG)
recombinant UMI read abundance (log10): 0.943

GGATAGACATGGACCGGTTTTCCCGGTAATCCGTATTTGCC (site GGATAGGCTGG)
recombinant UMI read abundance (log10): 1.98

GGATAGACATGGACCGGTTTTCCCGGTAATCCGTATTTGCC (site GGATAGTCTGG)
recombinant UMI read abundance (log10): 1.62

GGATAGACATGGACCGGTTTTCCCGGTAATCCGTATTTGCC (site GGATATACTGG)
recombinant UMI read abundance (log10): 2.8

GGATAGACATGGACCGGTTTTCCCGGTAATCCGTATTTGCC (site GGATCGACTGG)
recombinant UMI read abundance (log10): 0

GGATAGACATGGACCGGTTTTCCCGGTAATCCGTATTTGCC (site GGATGGACTGG)
recombinant UMI read abundance (log10): 0

GGATAGACATGGACCGGTTTTCCCGGTAATCCGTATTTGCC (site GGATTGACTGG)
recombinant UMI read abundance (log10): 0

GGATAGACATGGACCGGTTTTCCCGGTAATCCGTATTTGCC (site GGCTAGACTGG)
recombinant UMI read abundance (log10): 1.03

GGATAGACATGGACCGGTTTTCCCGGTAATCCGTATTTGCC (site GGGTAGACTGG)
recombinant UMI read abundance (log10): 0.24

GGATAGACATGGACCGGTTTTCCCGGTAATCCGTATTTGCC (site GGTTAGACTGG)
recombinant UMI read abundance (log10): 1.09

GGATAGACATGGACCGGTTTTCCCGGTAATCCGTATTTGCC (site GTATAGACTGG)
recombinant UMI read abundance (log10): 1.89

GGATAGACATGGACCGGTTTTCCCGGTAATCCGTATTTGCC (site TGATAGACTGG)
recombinant UMI read abundance (log10): 2.09

GGATAGACATGGACCGGTTTTCCCGGTAATCCGTATTTGGC (site GGATAGACTGA)
recombinant UMI read abundance (log10): 1.7

GGATAGACATGGACCGGTTTTCCCGGTAATCCGTATTTGGC (site GGATAGACTGC)
recombinant UMI read abundance (log10): 2.35

GGATAGACATGGACCGGTTTTCCCGGTAATCCGTATTTGGC (site GGATAGACTGG)
recombinant UMI read abundance (log10): 0

GGATAGACATGGACCGGTTTTCCCGGTAATCCGTATTTGGC (site GGATAGACTGT)
recombinant UMI read abundance (log10): 2.32

GGATAGACATGGACCGGTTTTCCCGGTAATCCGTATTTGTC (site GGATAGACTGA)
recombinant UMI read abundance (log10): 3.09

GGATAGACATGGACCGGTTTTCCCGGTAATCCGTATTTGTC (site GGATAGACTGC)
recombinant UMI read abundance (log10): 0.855

GGATAGACATGGACCGGTTTTCCCGGTAATCCGTATTTGTC (site GGATAGACTGG)
recombinant UMI read abundance (log10): 2.1

GGATAGACATGGACCGGTTTTCCCGGTAATCCGTATTTGTC (site GGATAGACTGT)
recombinant UMI read abundance (log10): 1.81

GGATAGTCATGGACCGGTTTTCCCGGTAATCCGTATTTGCT (site GGATAGTCTAG)
recombinant UMI read abundance (log10): 3.17

GGATATACATGGACCGGTTTTCCCGGTAATCCGTATTTGAT (site GGATATACTAT)
recombinant UMI read abundance (log10): 2.03

GGATCGACATGGACCGGTTTTCCCGGTAATCCGTATTTGTA (site GGATCGACTTA)
recombinant UMI read abundance (log10): 0.775

GGATCGTCATGGACCGGTTTTCCCGGTAATCCGTATTTGCT (site CGATCATCTAG)
recombinant UMI read abundance (log10): 0.402

GGATCGTCATGGACCGGTTTTCCCGGTAATCCGTATTTGCT (site GGATCGTCTAG)
recombinant UMI read abundance (log10): 2.28

GGATGAACATGGACCGGTTTTCCCGGTAATCCGTATTTGTT (site GGATGAACTAA)
recombinant UMI read abundance (log10): 1.78

GGATTCACATGGACCGGTTTTCCCGGTAATCCGTATTTGTT (site GGATTCACTAA)
recombinant UMI read abundance (log10): 1.44

GGATTGGCATGGACCGGTTTTCCCGGTAATCCGTATTTGGT (site GGAATGGCTAC)
recombinant UMI read abundance (log10): 0.341

GGATTGGCATGGACCGGTTTTCCCGGTAATCCGTATTTGGT (site GGACTGGCTAC)
recombinant UMI read abundance (log10): 0.611

GGATTGGCATGGACCGGTTTTCCCGGTAATCCGTATTTGGT (site GGAGTGGCTAC)
recombinant UMI read abundance (log10): 0.0175

GGATTGGCATGGACCGGTTTTCCCGGTAATCCGTATTTGGT (site GGATTGGCTAC)
recombinant UMI read abundance (log10): 1.46

GGCAAACCATGGACCGGTTTTCCCGGTAATCCGTATTTGGT (site GACAAACCTAC)
recombinant UMI read abundance (log10): 0

GGCAAACCATGGACCGGTTTTCCCGGTAATCCGTATTTGGT (site GCCAAACCTAC)
recombinant UMI read abundance (log10): 0

GGCAAACCATGGACCGGTTTTCCCGGTAATCCGTATTTGGT (site GGCAAACCTAC)
recombinant UMI read abundance (log10): 0

GGCAAACCATGGACCGGTTTTCCCGGTAATCCGTATTTGGT (site GTCAAACCTAC)
recombinant UMI read abundance (log10): 0

GGCAACCCATGGACCGGTTTTCCCGGTAATCCGTATTTGAA (site GGCAAACCTTT)
recombinant UMI read abundance (log10): 0

GGCAACCCATGGACCGGTTTTCCCGGTAATCCGTATTTGAA (site GGCAACCCTTT)
recombinant UMI read abundance (log10): 0.0234

GGCAACCCATGGACCGGTTTTCCCGGTAATCCGTATTTGAA (site GGCAAGCCTTT)
recombinant UMI read abundance (log10): 0

GGCAACCCATGGACCGGTTTTCCCGGTAATCCGTATTTGAA (site GGCAATCCTTT)
recombinant UMI read abundance (log10): 0.00284

GGCAATCCATGGACCGGTTTTCCCGGTAATCCGTATTTGAT (site GGCAATCCTAT)
recombinant UMI read abundance (log10): 0.192

GGCAATCCATGGACCGGTTTTCCCGGTAATCCGTATTTGAT (site GGCAATCCTCT)
recombinant UMI read abundance (log10): 0.0105

GGCAATCCATGGACCGGTTTTCCCGGTAATCCGTATTTGAT (site GGCAATCCTGT)
recombinant UMI read abundance (log10): 0

GGCAATCCATGGACCGGTTTTCCCGGTAATCCGTATTTGAT (site GGCAATCCTTT)
recombinant UMI read abundance (log10): 0.00349

GGCAATCCATGGACCGGTTTTCCCGGTAATCCGTATTTGCA (site GGCAATCCTTA)
recombinant UMI read abundance (log10): 0.227

GGCAATCCATGGACCGGTTTTCCCGGTAATCCGTATTTGCA (site GGCAATCCTTC)
recombinant UMI read abundance (log10): 0.0145

GGCAATCCATGGACCGGTTTTCCCGGTAATCCGTATTTGCA (site GGCAATCCTTG)
recombinant UMI read abundance (log10): 0

GGCAATCCATGGACCGGTTTTCCCGGTAATCCGTATTTGCA (site GGCAATCCTTT)
recombinant UMI read abundance (log10): 0.0136

GGCAATTCATGGACCGGTTTTCCCGGTAATCCGTATTTGAA (site GGCAATACTTT)
recombinant UMI read abundance (log10): 0.0193

GGCAATTCATGGACCGGTTTTCCCGGTAATCCGTATTTGAA (site GGCAATCCTTT)
recombinant UMI read abundance (log10): 0.0153

GGCAATTCATGGACCGGTTTTCCCGGTAATCCGTATTTGAA (site GGCAATGCTTT)
recombinant UMI read abundance (log10): 0.0122

GGCAATTCATGGACCGGTTTTCCCGGTAATCCGTATTTGAA (site GGCAATTCTTT)
recombinant UMI read abundance (log10): 0.996

GGCAGAACATGGACCGGTTTTCCCGGTAATCCGTATTTGTG (site GGCAGAACTCA)
recombinant UMI read abundance (log10): 1.3

GGCAGCCCATGGACCGGTTTTCCCGGTAATCCGTATTTGAC (site GGCAGCCCTGT)
recombinant UMI read abundance (log10): 0

GGCAGCGCATGGACCGGTTTTCCCGGTAATCCGTATTTGCT (site GGCAGCGCTAG)
recombinant UMI read abundance (log10): 2.43

GGCAGTCCATGGACCGGTTTTCCCGGTAATCCGTATTTGAA (site GGCAATCCTTT)
recombinant UMI read abundance (log10): 0.00812

GGCAGTCCATGGACCGGTTTTCCCGGTAATCCGTATTTGAA (site GGCACTCCTTT)
recombinant UMI read abundance (log10): 0.018

GGCAGTCCATGGACCGGTTTTCCCGGTAATCCGTATTTGAA (site GGCAGTCCTTT)
recombinant UMI read abundance (log10): 0.191

GGCAGTCCATGGACCGGTTTTCCCGGTAATCCGTATTTGAA (site GGCATTCCTTT)
recombinant UMI read abundance (log10): 0
